Experimental data: patent US7964406B2, “Means and methods for producing a stabilized cell of interest” (Academisch Medisch Centrum Bij De Universiteit Van Amsterdam, priority 2004, dated 2011)

What was measured:
[1] = tested on: BCL-6; test: BCL-6 expression in STAT5b-ER+ tonsil B cells after 4HT, RT-PCR and Western blot; type: cell-based, human; conditions: 4HT added back for 8 hr after 10 days without
Description: FIG. 21. Induction of BCL-6 expression by STAT5. (A) RT-PCR analysis of BCL-6 and HPRT in B cells transduced with CA-STAT5b-ER cultured in CD40L, IL-2 and IL-4 with 4HT. After incubation of the cells without 4HT for 10 days, 4HT was added back for 8 hr in the presence or absence of cyclohexamide (CH). This experiment was repeated 3 times with similar results. (B) Expression of BCL-6 protein in CA-STAT5b-ER-transduced B cells cultured in the presence of 4HT constantly or absence of 4HT for 12 days as determined by Western blot analysis using an anti-BCL-6 antibody. An antibody against actin was used as a protein loading control. Similar results were obtained in 3 independent experiments. (C) Dual luciferase reporter assay. Part of the promoter region of the BCL-6 gene (position −657/+471 bp) was linked to the firefly (P. pyralis) luciferase coding sequence and subcloned into the pGL3 vector. One potential STAT5 binding site in this promoter region (−548/−566 bp) was mutated from […] to […], and two different clones (BCL-6* and BCL-6**) were subcloned into the pGL3-firefly luciferase backbone. These pGL3 constructs were cotransfected with LZRS-CA-STAT5b and the Renilla luciferase containing vector into 293T cells. Both luciferase activities were measured sequentially from a single sample and relative luciferase units were calculated and corrected for the Renilla luciferase activity. […]

[2] = tested on: human tonsillar B cells; test: 4HT-dependent growth of CA-STAT5b-ER transduced tonsillar B cells; type: cell-based; conditions: 1 μM 4HT, CD40L, IL-2 and IL-4
Description: FIG. 19. Characteristics of B cells transduced with CA-STAT5b-ER. (A) Tonsil B cells were cultured in CD40L, IL-2 and IL-4 and transduced with CA-STAT5b-ER-IRES-ΔNGFR (circles) or with control-IRES-ΔNGFR (squares). Both cultures were split, one part was cultured without (open symbols) and another with 1 μM 4HT (closed symbols). At the indicated time points after transduction percentages of transduced cells were determined by flow cytometric analysis after staining with an APC-conjugated antibody against NGFR. Absolute cell number counts were determined based on the percentages of ΔNGFR^+ cells. The experiment shown is representative for 5 independent experiments performed. (B) CA-STAT5b-ER-IRES-ΔNGFR transduced B cells 30 days after transduction were cultured for 7 days in the absence of 4HT. Equal numbers of cells were cultured then either in the presence (closed squares) or absence of 4HT (open squares) and absolute cell numbers were determined. Shown is a representative experiment out of 3. (C) Flow cytometric analysis of a representative culture of CA-STAT5b-ER-IRES-ΔNGFR transduced B cells cultured in CD40L, IL-2 and IL-4 in the presence of 4HT. Isotype control stainings are shown as thin histograms.
We then transduced human tonsillar B cells with the CA-STAT5b-ER-IRES-ΔNGFR construct and examined the effect of 4HT on the proliferative capacity of these B cells. […]

For 4-Hydroxy-Tamoxifen [4HT], the “expression of the BCL-6 transcript with 4HT versus without” value [1] was “substantially higher” and the “growth selection of CA-STAT5b-ER expressing cells (ΔNGFR+)” value [2] was “only occurred in the presence of 4HT”.
